Reference: publication PMC9396645 (Frontiers in Chemistry, 2022)

Tests used:
[1] = tested on: C4-2 tumor bearing BALB/c nu/nu mice; experiment: Small-animal PET imaging in C4-2 tumor bearing mice; assay type: in vivo, mouse; conditions: mean SUV from PET, 2 h p.i.
Text: (§1) Athymic male nude mice (BALB/c nu/nu) were purchased from Charles River at 4‒5 weeks of age (19–23 g). The mice were kept under pathogen-free conditions for 1 week prior to the study. The mice had free access to water and food and were housed with a 12-h/12-h light/dark cycle. The xenografts required for positron emission tomography (PET) imaging and biodistribution studies were obtained by inoculation of 5 × 10^7 C4-2 cells in 50% Matrigel in Opti-MEM I (1 ×) medium. For this purpose, the mice were anesthetized with 2% sevoflurane, and inoculation was performed subcutaneously on the right trunk. When the size of the tumor was approximately 1 cm^3, the studies were performed.
For small-animal PET imaging, the different ^68Ga-labeled PSMA ligands (0.5 nmol, 20 MBq in approximately 100 µL 0.9% saline) were injected into C4-2 tumor bearing mice. The dynamic PET was recorded in a small animal PET scanner (Siemens Inveon D-PET). The standardized uptake values (SUVs) were obtained from conventional (non-dynamic) PET images. The formula for the SUV was SUV=activity in ROI (Bq/ml) × animal weight (g)/injected dose(Bq)
Manual delineation of the respective appropriate whole organ (heart, kidneys, bladder, tumor, with an approximate volume of 100–500 µL) yielded the volumes of interest (VOIs). For this purpose, whole organs or parts of the organ/tissue (liver and muscle) were used. The images were reconstructed based on the procedure: OSEM 3D/SP MAP with 16 subsets, two iterations, and an image x-y size: 256, image z size: 161. The data were not modified with a post-processing filter. Analysis of the images and time-activity curves (TACs) was conducted on the Inveon™ Acquisition Workplace (IAW) from Siemens IRW 4.1. […] […] The mean SUVs were plotted over time in order to compare the different radiotracers.

C4-2 cells = experiment: Internalization efficiency / specific cell uptake in C4-2 cells; assay type: cell-based, human; conditions: ^68Ga-labeled compounds 30 nM, 45 min, 37°C, specificity by 2-PMPA 500 μM, mean ± SD (n = 3)
Procedure: The specific internalization ratio was determinated in 24-well plates. The plates were previously coated with 0.1% poly-L-lysine in PBS for 20 min and washed with PBS once. C4-2 cells (10^5 cells per analysis) were added to each well and equilibrated overnight. The cells were incubated for 45 min with 250 µL of a 30 nM solution of the ^68Ga-labeled compounds either in a water bath at 37°C or on ice. The PSMA-receptor-blocking agent 2-(phosphonomethyl)pentanedioic acid (2-PMPA; 500 μM; Axxora) was used to verify the specificity of the cellular uptake of the novel compounds. The cells were washed thrice (using 1 ml of ice-cold PBS), followed by an incubation with 0.5 ml of a glycine solution (50 mM in HCl at a pH of 2.8) for 5 min, washed once with 1 ml of ice-cold PBS, and finally lysed with 0.5 ml of 0.3 M NaOH. The lysate was collected, and the radioactivity was measured in a gamma-counter. Triplicate measurements were performed for all experiments.

prostate cancer patients = experiment: PSMA-PET/CT of prostate cancer patients; assay type: in vivo, human; conditions: patient PET/CT, 20 nmol
Procedure: Diagnostic PSMA-PET/computed tomography (CT) examinations were performed 1 and 3 h after antecubital injection of 339 MBq/20 nmol ^68Ga-CA028 or 295 MBq/20 nmol ^68Ga-CA030 per patient, respectively. The method for assessing the biodistribution was performed as previously described by Afshar-Oromieh et al. ([Afshar-Oromieh et al., 2015b]). Applying the clinical standard software Syngo (Siemens), which was used to define the VOIs in the PET images, the activity distributions of the source organs was determined. This reference ([Afshar-Oromieh et al., 2015b]) was also used as a standard of reference for ^68Ga-PSMA-617 (Table 3).

[2] = tested on: C4-2 tumor bearing BALB/c nu/nu mice; experiment: Biodistribution (organ distribution) in C4-2 tumor-bearing mice; assay type: in vivo, mouse; conditions: tumor bearing mice, n = 3
Text: as §1
Based on the results of the PET imaging, ^68Ga-CA028 and ^68Ga-CA030, the most promising compounds, were chosen for biodistribution studies in C4-2 tumor-bearing mice. The labeled compound (0.05 nmol, 20 MBq) was administered to the mice via tail vein injection. Animals were sacrificed and organs were harvested at the following time points: 20 min, 1, 2, and 4 h p.i. The organs were dissected and weighed, the activity was measured with a γ-counter, and the % ID/g was calculated.

O=C([O-])CN1CCN(CC(=O)[O-])CCN(CC(=O)O)C(Cc2ccc(NC(=S)NCC3CCC(C(=O)NC(Cc4ccc5ccccc5c4)C(=O)NCCCCC(NC(=O)NC(CCC(=O)O)C(=O)O)C(=O)O)CC3)cc2)CN(CC(=O)[O-])CC1.[68Ga+3] (stereo not drawn) [^68Ga-CA030]
tumor-to-kidney ratio [1]: 0.33 | Specific lysate (internalization) (C4-2 cells): 53.8 ± 5.4 %IA/10^6 cells | SUV mean Bone metastasis (prostate cancer patients; first listed bone metastasis, 1 h p.i.): 27.2 | SUV mean Bone metastasis (prostate cancer patients; first listed bone metastasis, 3 h p.i.): 37.7 | SUV mean Blood pool, mediastinal (prostate cancer patients; 1 h p.i.): 5.6 | SUV mean Colon (prostate cancer patients; 1 h p.i.): 4.9 | SUV mean Gluteal muscle (prostate cancer patients; 1 h p.i.): 0.8 | SUV mean Kidneys (prostate cancer patients; 1 h p.i.): 13.4 | SUV mean Lacrimal gland (prostate cancer patients; 1 h p.i.): 7.1 | SUV mean Liver (prostate cancer patients; 1 h p.i.): 5.8 | SUV mean Nasal mucosa (prostate cancer patients; 1 h p.i.): 3.3 | SUV mean Parotid gland (prostate cancer patients; 1 h p.i.): 6.1 | SUV mean Proximal small intestine (prostate cancer patients; 1 h p.i.): 4.1 | SUV mean Spleen (prostate cancer patients; 1 h p.i.): 7.2 | SUV mean Sublingual gland (prostate cancer patients; 1 h p.i.): 4.1 | SUV mean Submandibular gland (prostate cancer patients; 1 h p.i.): 8.7 | SUV mean Blood pool, mediastinal (prostate cancer patients; 3 h p.i.): 4.5 | SUV mean Colon (prostate cancer patients; 3 h p.i.): 4.7 | SUV mean Gluteal muscle (prostate cancer patients; 3 h p.i.): 0.7 | SUV mean Kidneys (prostate cancer patients; 3 h p.i.): 16.5 | SUV mean Lacrimal gland (prostate cancer patients; 3 h p.i.): 9.0 | SUV mean Liver (prostate cancer patients; 3 h p.i.): 5.9 | SUV mean Nasal mucosa (prostate cancer patients; 3 h p.i.): 3.8 | SUV mean Parotid gland (prostate cancer patients; 3 h p.i.): 6.7 | SUV mean Proximal small intestine (prostate cancer patients; 3 h p.i.): 5.0 | SUV mean Spleen (prostate cancer patients; 3 h p.i.): 6.1 | SUV mean Sublingual gland (prostate cancer patients; 3 h p.i.): 4.9 | SUV mean Submandibular gland (prostate cancer patients; 3 h p.i.): 11.3 | SUV mean Bone metastasis (prostate cancer patients; second listed bone metastasis, 1 h p.i.): 30.9 | SUV mean Bone metastasis (prostate cancer patients; second listed bone metastasis, 3 h p.i.): 32.6 | SUV mean Bone metastasis (prostate cancer patients; third listed bone metastasis, 1 h p.i.): 31.0 | SUV mean Bone metastasis (prostate cancer patients; third listed bone metastasis, 3 h p.i.): 33.1 | Organ distribution Blood ([2]; 20 min): 4.33 ± 0.51 % ID/g | Organ distribution Brain ([2]; 20 min): 0.08 ± 0.01 % ID/g | Organ distribution Heart ([2]; 20 min): 1.29 ± 0.30 % ID/g | Organ distribution Kidneys ([2]; 20 min): 63.89 ± 5.72 % ID/g | Organ distribution Liver ([2]; 20 min): 1.04 ± 0.18 % ID/g | Organ distribution Lung ([2]; 20 min): 2.63 ± 0.89 % ID/g | Organ distribution Muscle ([2]; 20 min): 1.39 ± 1.30 % ID/g | Organ distribution Small intestine ([2]; 20 min): 1.00 ± 0.38 % ID/g | Organ distribution Spleen ([2]; 20 min): 8.37 ± 0.47 % ID/g | Organ distribution Tumor ([2]; 20 min): 5.17 ± 1.48 % ID/g | Organ distribution Blood ([2]; 1 h): 3.59 ± 1.52 % ID/g | Organ distribution Brain ([2]; 1 h): 0.08 ± 0.02 % ID/g | Organ distribution Heart ([2]; 1 h): 1.03 ± 0.36 % ID/g | Organ distribution Kidneys ([2]; 1 h): 46.39 ± 23.44 % ID/g | Organ distribution Liver ([2]; 1 h): 1.52 ± 0.61 % ID/g | Organ distribution Lung ([2]; 1 h): 2.74 ± 0.72 % ID/g | Organ distribution Muscle ([2]; 1 h): 0.63 ± 0.21 % ID/g | Organ distribution Small intestine ([2]; 1 h): 0.92 ± 0.37 % ID/g | Organ distribution Spleen ([2]; 1 h): 2.86 ± 1.86 % ID/g | Organ distribution Tumor ([2]; 1 h): 5.36 ± 2.21 % ID/g | Organ distribution Blood ([2]; 2 h): 1.42 ± 0.61 % ID/g | Organ distribution Brain ([2]; 2 h): 0.04 ± 0.02 % ID/g | Organ distribution Heart ([2]; 2 h): 0.40 ± 0.09 % ID/g | Organ distribution Kidneys ([2]; 2 h): 20.19 ± 7.92 % ID/g | Organ distribution Liver ([2]; 2 h): 0.81 ± 0.15 % ID/g | Organ distribution Lung ([2]; 2 h): 1.08 ± 0.42 % ID/g | Organ distribution Muscle ([2]; 2 h): 0.28 ± 0.03 % ID/g | Organ distribution Small intestine ([2]; 2 h): 0.75 ± 0.06 % ID/g | Organ distribution Spleen ([2]; 2 h): 1.39 ± 0.47 % ID/g | Organ distribution Tumor ([2]; 2 h): 4.31 ± 0.30 % ID/g | Organ distribution Blood ([2]; 4 h): 0.39 ± 0.14 % ID/g | Organ distribution Brain ([2]; 4 h): 0.01 ± 0.00 % ID/g | Organ distribution Heart ([2]; 4 h): 0.16 ± 0.05 % ID/g | Organ distribution Kidneys ([2]; 4 h): 6.17 ± 0.82 % ID/g | Organ distribution Liver ([2]; 4 h): 0.50 ± 0.14 % ID/g | Organ distribution Lung ([2]; 4 h): 0.34 ± 0.10 % ID/g | Organ distribution Muscle ([2]; 4 h): 0.17 ± 0.02 % ID/g | Organ distribution Small intestine ([2]; 4 h): 0.21 ± 0.09 % ID/g | Organ distribution Spleen ([2]; 4 h): 0.48 ± 0.09 % ID/g | Organ distribution Tumor ([2]; 4 h): 2.69 ± 0.88 % ID/g
